Measurements from patent US20230072683A1, “PYRIDO-PYRIMIDIN DERIVATIVES AND PHARMACEUTICAL COMPOSITION, FOR USE IN PREVENTING OR TREATING PI3 KINASE RELATED DISEASES, COMPRISING SAME AS ACTIVE INGREDIENT” (BORYUNG PHARMACEUTICAL CO., LTD, priority 2019, published 2023).

What was measured:
[1] = molecular target: PI3K-δ (PI3K(p1108/p857) (h)) (Homo sapiens, UniProt O00329); assay: Evaluation of inhibitory activity against PI3K-δ (HTRF kinase assay); type: biochemical; conditions: for inhibition at 0.01 µM: compound concentration 0.01 μM, read-out: EXP_VALUE(% Inhibition) PI3K-δ 0.01 μM; for inhibition at 0.1 µM: compound concentration 0.1 μM, read-out: EXP_VALUE(% Inhibition) PI3K-δ 0.1 μM
PI3K-δ (PI3K(p1108/p857) (h)), sequence (O00329 whole entry, the tested form may be a part): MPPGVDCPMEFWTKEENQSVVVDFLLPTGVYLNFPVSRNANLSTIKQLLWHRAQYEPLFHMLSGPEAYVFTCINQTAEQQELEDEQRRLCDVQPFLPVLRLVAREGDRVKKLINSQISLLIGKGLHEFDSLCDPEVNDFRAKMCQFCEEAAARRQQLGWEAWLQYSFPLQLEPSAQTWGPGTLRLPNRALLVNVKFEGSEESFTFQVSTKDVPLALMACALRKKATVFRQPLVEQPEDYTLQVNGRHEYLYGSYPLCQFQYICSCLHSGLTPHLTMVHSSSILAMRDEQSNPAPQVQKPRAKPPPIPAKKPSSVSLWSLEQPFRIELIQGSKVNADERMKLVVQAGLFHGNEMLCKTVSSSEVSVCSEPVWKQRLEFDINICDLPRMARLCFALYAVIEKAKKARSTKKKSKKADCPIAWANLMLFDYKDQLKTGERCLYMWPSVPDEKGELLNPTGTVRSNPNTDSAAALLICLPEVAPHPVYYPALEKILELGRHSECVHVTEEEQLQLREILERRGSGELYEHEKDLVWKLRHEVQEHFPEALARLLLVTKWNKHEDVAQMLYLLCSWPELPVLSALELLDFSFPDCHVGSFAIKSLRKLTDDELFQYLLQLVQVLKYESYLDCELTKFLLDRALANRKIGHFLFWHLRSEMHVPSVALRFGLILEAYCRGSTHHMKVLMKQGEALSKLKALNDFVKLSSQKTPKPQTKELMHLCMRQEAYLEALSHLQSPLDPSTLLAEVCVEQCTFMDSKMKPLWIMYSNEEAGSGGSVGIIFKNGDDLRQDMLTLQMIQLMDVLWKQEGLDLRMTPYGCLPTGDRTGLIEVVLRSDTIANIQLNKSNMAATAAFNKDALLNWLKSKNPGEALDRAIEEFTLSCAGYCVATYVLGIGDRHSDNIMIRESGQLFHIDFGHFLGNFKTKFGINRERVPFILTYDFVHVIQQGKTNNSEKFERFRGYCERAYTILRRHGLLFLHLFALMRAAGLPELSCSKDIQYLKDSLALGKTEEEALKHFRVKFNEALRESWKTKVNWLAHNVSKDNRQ
PI3K-δ (PI3K(p1108/p857) (h)), sequence (P27986 whole entry partner, the tested form may be a part): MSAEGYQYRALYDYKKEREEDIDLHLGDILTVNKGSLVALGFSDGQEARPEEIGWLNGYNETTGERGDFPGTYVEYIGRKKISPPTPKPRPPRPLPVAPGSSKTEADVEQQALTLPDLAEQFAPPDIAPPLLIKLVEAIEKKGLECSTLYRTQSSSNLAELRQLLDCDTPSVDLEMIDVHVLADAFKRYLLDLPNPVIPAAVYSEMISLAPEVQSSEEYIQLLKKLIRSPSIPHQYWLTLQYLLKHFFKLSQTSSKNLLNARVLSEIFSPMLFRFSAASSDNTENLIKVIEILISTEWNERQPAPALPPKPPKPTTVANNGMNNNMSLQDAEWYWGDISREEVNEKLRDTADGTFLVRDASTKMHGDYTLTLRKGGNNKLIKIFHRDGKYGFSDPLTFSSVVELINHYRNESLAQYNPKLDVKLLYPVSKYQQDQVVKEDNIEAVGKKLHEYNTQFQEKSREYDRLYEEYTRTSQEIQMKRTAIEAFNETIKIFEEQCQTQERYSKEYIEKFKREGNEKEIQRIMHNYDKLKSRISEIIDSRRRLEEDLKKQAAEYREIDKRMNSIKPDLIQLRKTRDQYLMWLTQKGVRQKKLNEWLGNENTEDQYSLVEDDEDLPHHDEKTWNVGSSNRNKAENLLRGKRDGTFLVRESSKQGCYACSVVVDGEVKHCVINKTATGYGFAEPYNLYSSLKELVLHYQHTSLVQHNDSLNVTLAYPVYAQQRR
Outline: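 HTRF read-out (665/620 nm ratio ×10000) used Eu-labelled anti-GST, GST-tagged GRP1 PH domain and streptavidin-allophycocyanin after EDTA/PIP3 stop.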

[2] = molecular target: DNA-PK(h) (Homo sapiens, UniProt P78527); assay: Evaluation of inhibitory activity against DNA-PK (HTRF kinase assay, GST-cMyc-p53 substrate); type: biochemical; conditions: for inhibition at 0.01 µM: compound concentration 0.01 μM, read-out: EXP_VALUE(% Inhibition) DNA-PK(h) 0.01 μM; for inhibition at 0.1 µM: compound concentration 0.1 μM, read-out: EXP_VALUE(% Inhibition) DNA-PK(h) 0.1 μM
Outline: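 p53 Ser15 phosphorylation by human DNA-PK was measured by time-resolved FRET ratio (665/620 nm ×10000) using Eu-labelled anti-phospho-Ser15 and d2 anti-GST antibodies. Substrate GST-cMyc-p53 at 50 μM; Mg/ATP-initiated, 30 min at room temperature, EDTA stop.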

Row | Compound | inhibition at 0.01 µM [1] | inhibition at 0.1 µM [1] | inhibition at 0.01 µM [2] | inhibition at 0.1 µM [2]
1 | COc1cc(-c2cccc3c(Cl)c([C@H](C)Nc4ncnc5[nH]ccc(=O)c45)n(-c4ccccc4)c(=O)c23)ccc1Cl [Example 99, (S)-4-((1-(4-chloro-8-(4-chloro-3-methoxyphenyl)-1-oxo-2-phenyl-1,2-dihydroisoquinolin-3-yl)ethyl)amino)pyrido[2,3-d]pyrimidin-5(8H)-one] | 83% | 108% | 54% | 95%
2 | COc1cc(-c2cccc3cc([C@H](C)Nc4ncnc5[nH]ccc(=O)c45)n(-c4ccccc4)c(=O)c23)ccc1Cl [Example 100, (S)-4-((1-(8-(4-chloro-3-methoxyphenyl)-1-oxo-2-phenyl-1,2-dihydroisoquinolin-3-yl)ethyl)amino)pyrido[2,3-d]pyrimidin-5(8H)-one] | 82% | 104% | 17% | 54%
3 | CC(C)Oc1ccc(-c2cccc3c(Cl)c([C@H](C)Nc4ncnc5[nH]ccc(=O)c45)n(-c4ccccc4)c(=O)c23)cn1 [Example 101, (S)-4-((1-(4-chloro-8-(6-isopropoxypyridin-3-yl)-1-oxo-2-phenyl-1,2-dihydroisoquinolin-3-yl)ethyl)amino)pyrido[2,3-d]pyrimidin-5(8H)-one] | 90% | 102% | 68% | 94%
4 | C[C@H](Nc1ncnc2[nH]ccc(=O)c12)c1c(Cl)c2cccc(-c3cncnc3)c2c(=O)n1-c1ccccc1 [Example 102, (S)-4-((1-(4-chloro-1-oxo-2-phenyl-8-(pyrimidin-5-yl)-1,2-dihydroisoquinolin-3-yl)ethyl)amino)pyrido[2,3-d]pyrimidin-5(8H)-one] | 110% | 105% | 73% | 94%
5 | COc1cc(-c2cccc3c(Cl)c([C@H](C)Nc4ncnc5[nH]ccc(=O)c45)n(-c4ccccc4)c(=O)c23)cc(OC)c1OC [Example 103, (S)-4-((1-(4-chloro-1-oxo-2-phenyl-8-(3,4,5-trimethoxyphenyl)-1,2-dihydroisoquinolin-3-yl)ethyl)amino)pyrido[2,3-d]pyrimidin-5(8H)-one] | 91% | 103% | 91% | 101%
6 | C[C@H](Nc1ncnc2[nH]ccc(=O)c12)c1c(Cl)c2cccc(-c3cc(F)cc(Cl)c3)c2c(=O)n1-c1ccccc1 [Example 104, (S)-4-((1-(4-chloro-8-(3-chloro-5-fluorophenyl)-1-oxo-2-phenyl-1,2-dihydroisoquinolin-3-yl)ethyl)amino)pyrido[2,3-d]pyrimidin-5(8H)-one] | 63% | 95% | 16% | 66%
7 | C[C@H](Nc1ncnc2[nH]ccc(=O)c12)c1c(Cl)c2cccc(-c3ccc(-c4ccncc4)cc3)c2c(=O)n1-c1ccccc1 [Example 105, (S)-4-((1-(4-chloro-1-oxo-2-phenyl-8-(4-(pyridin-4-yl)phenyl)-1,2-dihydroisoquinolin-3-yl)ethyl)amino)pyrido[2,3-d]pyrimidin-5(8H)-one] | 75% | 103% | 12% | 75%
8 | C[C@H](Nc1ncnc2[nH]ccc(=O)c12)c1c(Cl)c2cccc(-c3cccc(F)c3Cl)c2c(=O)n1-c1ccccc1 [Example 106, (S)-4-((1-(4-chloro-8-(2-chloro-3-fluorophenyl)-1-oxo-2-phenyl-1,2-dihydroisoquinolin-3-yl)ethyl)amino)pyrido[2,3-d]pyrimidin-5(8H)-one] | 53% | 87% | 14% | 59%
9 | C[C@H](Nc1ncnc2[nH]ccc(=O)c12)c1c(Cl)c2cccc(-c3cc(F)ccc3Cl)c2c(=O)n1-c1ccccc1 [Example 107, (S)-4-((1-(4-chloro-8-(2-chloro-5-fluorophenyl)-1-oxo-2-phenyl-1,2-dihydroisoquinolin-3-yl)ethyl)amino)pyrido[2,3-d]pyrimidin-5(8H)-one] | 59% | 91% | 24% | 54%
10 | C[C@H](Nc1ncnc2[nH]ccc(=O)c12)c1c(Cl)c2cccc(-c3cc(O)cc(F)c3)c2c(=O)n1-c1ccccc1 [Example 108, (S)-4-((1-(4-chloro-8-(3-fluoro-5-hydroxyphenyl)-1-oxo-2-phenyl-1,2-dihydroisoquinolin-3-yl)ethyl)amino)pyrido[2,3-d]pyrimidin-5(8H)-one] | 99% | 102% | 7% | 66%
11 | Cc1c(F)cccc1-c1cccc2c(Cl)c([C@H](C)Nc3ncnc4[nH]ccc(=O)c34)n(-c3ccccc3)c(=O)c12 [Example 109, (S)-4-((1-(4-chloro-8-(3-fluoro-2-methylphenyl)-1-oxo-2-phenyl-1,2-dihydroisoquinolin-3-yl)ethyl)amino)pyrido[2,3-d]pyrimidin-5(8H)-one] | 61% | 94% | 10% | 65%
12 | Cc1ncccc1-c1cccc2c(Cl)c([C@H](C)Nc3ncnc4[nH]ccc(=O)c34)n(-c3ccccc3)c(=O)c12 [Example 110, (S)-4-((1-(4-chloro-8-(2-methylpyridin-3-yl)-1-oxo-2-phenyl-1,2-dihydroisoquinolin-3-yl)ethyl)amino)pyrido[2,3-d]pyrimidin-5(8H)-one] | 93% | 97% | 57% | 91%
13 | C[C@H](Nc1ncnc2[nH]ccc(=O)c12)c1c(Cl)c2cccc(-c3ccc4ncn(C)c4c3)c2c(=O)n1-c1ccccc1 [Example 111, (S)-4-((1-(4-chloro-8-(1-methyl-1H-benzo[d]imidazol-6-yl)-1-oxo-2-phenyl-1,2-dihydroisoquinolin-3-yl)ethyl)amino)pyrido[2,3-d]pyrimidin-5(8H)-one] | 80% | 96% | 87% | 98%
14 | C[C@H](Nc1ncnc2[nH]ccc(=O)c12)c1c(Cl)c2cccc(-c3cnc(N(C)C)nc3)c2c(=O)n1-c1ccccc1 [Example 112, (S)-4-((1-(4-chloro-8-(2-(dimethylamino)pyrimidin-5-yl)-1-oxo-2-phenyl-1,2-dihydroisoquinolin-3-yl)ethyl)amino)pyrido[2,3-d]pyrimidin-5(8H)-one] | 92% | 96% | 78% | 97%
15 | C[C@H](Nc1ncnc2[nH]ccc(=O)c12)c1c(Cl)c2cccc(-c3ccc4nccn4c3)c2c(=O)n1-c1ccccc1 [Example 113, (S)-4-((1-(4-chloro-8-(imidazo[1,2-a]pyridin-6-yl)-1-oxo-2-phenyl-1,2-dihydroisoquinolin-3-yl)ethyl)amino)pyrido[2,3-d]pyrimidin-5(8H)-one] | 82% | 93% | 79% | 98%
16 | C[C@H](Nc1ncnc2[nH]ccc(=O)c12)c1c(Cl)c2cccc(-c3ccc4c(c3)ncn4C)c2c(=O)n1-c1ccccc1 [Example 114, (S)-4-((1-(4-chloro-8-(1-methyl-1H-benzo[d]imidazol-5-yl)-1-oxo-2-phenyl-1,2-dihydroisoquinolin-3-yl)ethyl)amino)pyrido[2,3-d]pyrimidin-5(8H)-one] | 87% | 95% | 77% | 97%
17 | C[C@H](Nc1ncnc2[nH]ccc(=O)c12)c1c(Cl)c2cccc(-c3ccc(-c4ccccc4)nc3)c2c(=O)n1-c1ccccc1 [Example 115, (S)-4-((1-(4-chloro-1-oxo-2-phenyl-8-(6-phenylpyridin-3-yl)-1,2-dihydroisoquinolin-3-yl)ethyl)amino)pyrido[2,3-d]pyrimidin-5(8H)-one] | 78% | 96% | 15% | 72%
18 | C[C@H](Nc1ncnc2[nH]ccc(=O)c12)c1c(Cl)c2cccc(-c3ccc4c(ccn4C)c3)c2c(=O)n1-c1ccccc1 [Example 116, (S)-4-((1-(4-chloro-8-(1-methyl-1H-indol-5-yl)-1-oxo-2-phenyl-1,2-dihydroisoquinolin-3-yl)ethyl)amino)pyrido[2,3-d]pyrimidin-5(8H)-one] | 73% | 101% | 32% | 91%
19 | C[C@H](Nc1ncnc2[nH]ccc(=O)c12)c1c(Cl)c2cccc(-c3ccco3)c2c(=O)n1-c1ccccc1 [Example 117, (S)-4-((1-(4-chloro-8-(furan-2-yl)-1-oxo-2-phenyl-1,2-dihydroisoquinolin-3-yl)ethyl)amino)pyrido[2,3-d]pyrimidin-5(8H)-one] | 82% | 89% | 86% | 99%
20 | C[C@H](Nc1ncnc2[nH]ccc(=O)c12)c1c(Cl)c2cccc(-c3ccc(C4CCC4)cc3)c2c(=O)n1-c1ccccc1 [Example 118, (S)-4-((1-(4-chloro-8-(4-cyclobutylphenyl)-1-oxo-2-phenyl-1,2-dihydroisoquinolin-3-yl)ethyl)amino)pyrido[2,3-d]pyrimidin-5(8H)-one] | 29% | 81% | 26% | 74%
